The values that follow come from publication PMC7365463, “Oxfendazole mediates macrofilaricidal efficacy against the filarial nematode Litomosoides sigmodontis in vivo and inhibits Onchocerca spec. motility in vitro” (PLoS Neglected Tropical Diseases, 2020).

Like-named read-outs stand apart in the source and are kept apart here.

For data set [1], the system named is Brugia pahangi. On the set-up: method as in de Burbure 1986 (Ref. 9). The following applies: 200L3 (SC), Mastomys, food 56-82mg/kg, 7 days p.i., necropsy 177 days p.t., ref de Burbure 1986 (Ref. 9), cited from earlier work.
In data set [2] the test system is Acanthocheilonema viteae. Also noted: method as in Nogami 1987 (Ref. 13). The following applies: 50L3 (SC), hamster, SC 10mg/kg 5 cons. days, 12 weeks p.i, necropsy 5 weeks p.t.; ref Nogami 1987 (Ref. 13); cited from earlier work.
Data set [3] deals with Acanthocheilonema viteae / Brugia pahangi. Also noted: method as in Court 1988 (Ref. 10). Conditions: 15Ad A.v. (SC) +15Ad B.p. (IP), jirds, 5 days p.i., necropsy 5 weeks p.t., ref Court 1988 (Ref. 10), cited from earlier work.
The test system of data set [4] is Brugia pahangi. On the set-up: method as in Devaney 1985 (Ref. 8). The following applies: 50L3, balb/c, SC 10 or 50 mg/kg 5 cons. days, 4 days p.i., necropsy 3-4 weeks p.t.; ref Devaney 1985 (Ref. 8); cited from earlier work.
Data set [5] deals with Acanthocheilonema viteae. On the set-up: method as in Denham 1980 (Ref. 6). Conditions: 80L3, jirds, SC 100mg/kg 5 cons. days, ref Denham 1980 (Ref. 6), cited from earlier work.
Details of data set [6]: method as in PMID 30745383. The following applies: daily doses up to 60 mg/kg; cited from earlier work.
Data set [7] relates to Litomosoides sigmodontis adult worms. The data set is described as follows: L. sigmodontis-infected mice, adult worm burden. It counts as in vivo. As for the experimental part:
(Whatman 903 Protein […], Sigma-Aldrich, Germany). […] Mice were sacrificed at 75-78 dpi. […] The mice were anesthetized then sacrificed by bleeding (at MNHN) or by an overdose of isoflurane (at IMMIP). At the MNHN, the pleural cavity was washed 10 times with 1 ml of cold phosphate buffered saline (PBS) to collect filariae as previously described. At the IMMIP, the pleural cavity was washed with 1 ml of PBS. In both laboratories the remaining worms were isolated using forceps. The recovered L. sigmodontis adult worms were counted and analyzed by light microscopy to identify males and females.

Data set [8] deals with Onchocerca volvulus pre-adult L5 worms. The data set is described as follows: O. volvulus pre-adult (L5) worm motility assay. The following applies: read-out: IC50 of motility inhibition. As for the experimental part:
Cryopreserved O. volvulus L3 were thawed, washed and co-cultured with normal human PBMC as previously described. […] The L4 larvae were then transferred into a transwell (Sigma #CLS3472), ~10 L4 per transwell within a 24-well plate and over a monolayer comprised of Human Umbilical Vein Endothelial Cells (HUVEC; Lonza Inc., Allendale, NJ) seeded at a density of 1 x 10^4 cells per well. The larvae were cultured for 80 days using L4 complete media: 1:1 NCTC-109: MEM-alpha and EBM-2 (Clonetics EBM-2 Lonza# CC-3156) at a 60:40 ratio. […] Medium was exchanged 3 times a week and fresh HUVEC monolayers were prepared weekly. A week prior to performing the drug screening assay, the L4 day 80 that has molted to pre-adult worms, L5, were transferred from the transwells into a small petri dish containing fresh complete media. 7–10 L5 worms were retrieved from the petri dish and placed in new transwells containing a freshly prepared HUVEC monolayer. […] After 14 days of treatment, the drug containing media was replaced by complete media without drug. Continuing this assay for a further 19 days, the worms were supplied with fresh media every 2–3 days and the weekly use of fresh HUVEC monolayers. […] All drug concentrations were tested in duplicate. […] IC50 values were calculated using Graph Pad Prism v8.3.

On the set-up of data set [9]: method as in PMID 25701764. Conditions: rat, published data; cited from earlier work.
For data set [10], the system named is L. sigmodontis microfilariae. Put plainly: L. sigmodontis microfilariae-injected naïve mice. It is filed as in vivo, Litomosoides sigmodontis. The following applies: mice injected with 100,000 microfilariae, BID 2 x 12.5 mg/kg per os for 5 days. How it is done: To investigate the in vivo efficacy of oxfendazole on microfilariae, microfilariae were isolated from peripheral blood of L. sigmodontis-infected cotton rats according to Chandrashekar et al. (1984) using a sucrose percoll gradient. 100,000 microfilariae were injected into the tail vein of naïve mice as previously described. Microfilariae-injected mice were treated with a commercial formulation of oxfendazole (Dolthene) twice daily with 2 x 12.5 mg/kg per os. As a positive control, additional mice were treated with a single intraperitoneal dose of ivermectin (5 mg/kg) in DMSO/PEG400/H20dest with a ratio of 1:7:2 according to Halliday et al.. Control animals received no treatment.

For a further data set, the system named is mammalian tubulin. On the set-up: method as in PMID 6712717, PMID 1554382. The following applies: cited from earlier work.
Details of data set [11]: method as in PMID 1687815. The following applies: rat/sheep/cattle, published data; cited from earlier work.
Another data set has as its system L. loa microfilariae. On the set-up: method as in PMID 30926803. The following applies: L. loa mouse model; cited from earlier work.
Another data set relates to AMES bacterial assay. Conditions: in vitro; cited from earlier work.
Where [12] appears, read: mice, PO 2 x 2.5 mg/kg for 1 day, start 33 dpi, 75 dpi.
[13] abbreviates: mice, PO 2 x 2.5 mg/kg for 5 days, start 33 dpi, 75 dpi.
Where [14] appears, read: mice, PO 2 x 2.5 mg/kg for 10 days, start 33 dpi, 75 dpi.
Setting [15] is: mice, PO BID 2 x 1 mg/kg for 5 days from 35 dpi, necropsy 75 dpi.
The mark [16] stands for this setting: mice, PO BID 2 x 5 mg/kg for 5 days from 35 dpi, necropsy 75 dpi.

Turning to `COC(=O)Nc1nc2cc(C(=O)c3ccc(F)cc3)ccc2[nH]1` [flubendazole], the “Reduction of worm burden” value in the data set on Brugia pahangi [1] (7 days ad.lib.) is 100%; with Brugia pahangi [1] (14 days ad. lib.), 100%; in the data set on Acanthocheilonema viteae [2], 68%; in [3] (SC 50mg/kg 5 cons. days), 50%; in [3] (SC 100mg/kg 5 cons. days) it was 100%; with Brugia pahangi [4], 100%. For the same compound, the “Reduction of worm burden” value is reported as 100% in the data set on Acanthocheilonema viteae [5] (6 to 10 days p.i., necropsy 73-75 days p.t.) and 100% with Acanthocheilonema viteae [5] (42-46 days p.i., necropsy 39-40 days p.t.).
By IC50 is commonly meant the point on the concentration scale where inhibition reaches its midpoint. `COC(=O)Nc1nc2ccc([S+]([O-])c3ccccc3)cc2[nH]1` (stereo not shown) [oxfendazole]: the “Half-Life (HL), via predicted Vss/CL” value (human) is reported as 14.4 h. Also, the “Half-Life (HL), dog-hum correlation” value (human prediction) is recorded as 4.2 h. The “Half-Life (HL), rat-hum correlation” value (human prediction) is recorded as 12.1 h. Further, under “human prediction”, the “predicted human clearance as share of liver blood flow” value was ~ 2 % liver blood flow. Moreover, the “tolerability in healthy volunteers” value in [6] is “acceptable side effects”. Besides, the minimal efficacious concentration result in [7] (based on subcutaneous treatment at 25 mg/kg in mice, pharmacokinetic analysis) is given as “approximately 100 ng/ml”. Also, the macrofilaricidal efficacy entry in data set [7] (mice, BID oral 2 x 5.0 mg/kg for 10 consecutive days) is reported as “above 85%”; in data set [7] (mice, BID oral 2 x 12.5 mg/kg for 5 days), “above 85%”. The median adult worms in [7] (setting [12]) came to 20 worms; in [7] (setting [13]), 6.5 worms; in data set [7] (setting [14]), 1 worm; in data set [7] (setting [15]) it was 5 adult worms; in data set [7] (setting [16]) it was 0 adult worms. The “range of adult worms” value is given as 1–47 worms in data set [7] (setting [12]); 1–16 worms in data set [7] (setting [13]); 0–4 worms in [7] (setting [14]); 1–12 worms in data set [7] (setting [15]); 0–5 worms in data set [7] (setting [16]). In addition, the entries for the “reduction of the adult worm burden” value in data set [7] (setting [12]), in data set [7] (setting [13]) and in [7] (setting [14]) were 0%, 23.5% and 87.2%, respectively. Moreover, the “adult worm burden reduction” value in data set [7] (setting [15]) stood at 16.7%; in data set [7] (setting [16]) it was 100%; in data set [7] (mice, PO BID 2 x 25 mg/kg for 5 days from 35 dpi, necropsy 75 dpi), 100%. This compound displayed an adult worm reduction in data set [7] (mice, PO BID 2 x 12.5 mg/kg for 5 days from 35 dpi, necropsy 78 dpi) of 100%. The macrofilaricidal outcome in data set [7] (mice, SC 1 mg/kg QD for 5 days from 35 dpi, necropsy 78 dpi) was “no significant reduction of the worm burden”; in data set [7] (mice, SC 5 mg/kg QD for 5 days from 35 dpi, necropsy 78 dpi), “sterile cure was achieved in all mice except one”; in data set [7] (mice, SC 25 mg/kg QD for 5 days from 35 dpi, necropsy 78 dpi), “Sterile cure was achieved”; in data set [7] (mice, single oral BID dosing, doses up to 125 mg/kg, start 33 dpi, 75 dpi), “did not lead to a significant reduction”. Moreover, the IC50 in data set [8] (336 h, day 14 (14 days drug exposure)) was found to be 7590 nM; in [8] (day 19 of culture (14 days drug, 5 days without drug)) it was 28.6 nM; in [8] (day 33 of culture (14 days drug, 19 days without drug)), 10.2 nM. Also, the “Bioavailability (F)” value is about 35% in data set [9] and over 50% in data set [11]. Moreover, the “direct microfilaricidal effect in vivo” value in [10] is “no direct microfilaricidal effect”. Besides, the “inhibition of mammalian tubulin polymerization” value in the data set on mammalian tubulin is given as “poor inhibition”. The “microfilaricidal efficacy against L. loa” value in the data set on L. loa microfilariae was “lacks such a microfilaricidal efficacy”. The “toxicity in AMES bacterial assay” value in the data set with AMES bacterial assay is reported as “did not exhibit toxicity”.
